These results are taken from US20200246432A1, “NITRIC OXIDE- AND FAS LIGAND- ELUTING COMPOSITIONS AND DEVICES AND METHODS OF TREATMENT USING SAME” (YALE UNIVERSITY, priority 2017, published 2020).

Assay type in all cases: cell-based
The test system of data set [1] is human aortic SMCs. The data set is described as follows: Fas receptor expression on cultured human aortic SMCs after NO donor treatment (staining). As to conditions: 0.1 mM DetaNONOate, 24 hours. As for the experimental part: FIG. 2 is a set of images illustrating the finding that 24 hours of treatment with 0.1 mM DetaNONOate (NO donor) increased Fas receptors on the surface of human aortic SMCs dramatically. Blue=DAPI nuclei, red=Fas receptor. Scale bar: 50 μm.
Both local delivery of FasL, and increasing the Fas receptors on the surface of the target cells, can increase the efficiency of FasL-mediated apoptosis. Nitric oxide (NO) is known to increase surface Fas receptors on vascular SMCs (Fukuo et al., Hypertension, 1996. 27(3 Pt 2): p. 823-6; Boyle, Weissberg, and Bennett, Arterioscler Thromb Vasc Biol, 2002. 22(10): p. 1624-30). […] After 24 hours of treatment with DetaNONOate, Fas receptor expression on SMCs was increased (red stain, FIG. 2, right panel).

The subject of data set [2] is human aortic SMCs. Kind of data set: SMC apoptosis/killing, TUNEL staining, human aortic SMCs. To be noted: DetaNONOate alone, up to 0.2 mM. As for the experimental part:
(§1) FIG. 3 is a set of graphs illustrating the finding that 48 hours of treatment with varying concentrations of human FasL and DetaNONOate (NO donor) increased apoptosis in human (left panel) and pig (right panel) aortic SMCs in a synergistic way.
(§2) Addition of FasL and NO donor DetaNONOate increased human and pig aortic SMC apoptosis in a synergistic fashion (FIG. 3). DetaNONOate alone, up to 0.2 mM concentration, led to minimal (<15%) death of human or porcine SMCs.

The next data set has as its system pig aortic SMCs. Kind of data set: SMC apoptosis/killing, TUNEL staining, pig aortic SMCs. To be noted: DetaNONOate alone, up to 0.2 mM. As to the method:
as §1, §2

In data set [3] the test system is human umbilical vein endothelial cell (HUVEC). Kind of data set: EC viability: HUVEC cell number, apoptosis, proliferation. As for the experimental part: Next, the effect of FasL and NO donor combinations on EC viability was tested.

Molecules are shown by their SMILES.

For `NCCN(CCN)N(O)N=O` [DetaNONOate, 2,2′-(2-Hydroxy-2-nitrosohydrazinylidene)bis-ethanamine], the “Fas receptor expression on SMCs” value in the data set on human aortic SMCs [1] is recorded as “increased”. Further, the “death of human SMCs” value in the data set on human aortic SMCs [2] is listed as less than 15%. Moreover, the “death of porcine SMCs” value in the data set on pig aortic SMCs is reported as less than 15%. In addition, in data set [3] (DetaNONOate 0.2 mM), the EC viability result is on record as “negatively affected EC viability”. Moreover, the “HUVEC cell number, rates of apoptosis or proliferation” value in data set [3] (DetaNONOate alone 0.1 mM, absence of FasL, 96 hours) is given as “did not affect”.
